Measurements: publication PMC10384246, “Discovery of New Uracil and Thiouracil Derivatives as Potential HDAC Inhibitors” (Pharmaceuticals, 2023)
Where “and” joins values, the source holds several entries; their conditions need not be identical. Identical values can stand only once.

Experiments:
[1] = system: MCF-7 (human breast cancer cell line); assay: MTT anti-proliferative assay, MCF-7; format: cell-based; details: MCF7, MCF-7, mean of at least three experiments, read-out: Cytotoxicity IC50 MCF-7
Procedure: (§1) Sorafenib was used as a reference drug.
(§2) Anti-proliferative activity activities were tested using MTT assay as described in Supplementary Materials. […]
(§3) S2.1. In vitro anti-proliferative activities
(§4) The in vitro antiproliferative activities of all the synthesized compounds against three human tumor cell lines namely, MCF-7 (human breast cancer cell line), HepG2 (human liver […]
(§5) in the literature, using MTT assay protocol. Sorafenib was used in this test as a positive control.
(§6) The anti-proliferative activity was assessed quantitatively as follows.
(§7) Human cancer cell lines were seeded in 96-well plates at a density of 3-8 × 10^3 cells/well.
(§8) Next, the cells were incubated for 12 h in a 5% CO2 incubator at 37 °C. Then, for each well, the growth medium was exchanged with 0.1 ml of fresh medium containing graded concentrations of the test compounds or equal DMSO. Then 10 μl MTT solution ([…]) was added to each well, and the cells were incubated for additional 4 h. The crystals of MTT-formazan were dissolved in 100 μl of DMSO; the absorbance of each well was measured at 490 nm using an automatic ELISA reader system (TECAN, CHE). The IC50 values were calculated using the nonlinear regression fitting models (Graph Pad, Prism Version 5). The data represented the mean of three independent experiments in triplicate and were expressed as means ± SD. The IC50 value was […]
(§9) defined as the concentration at which 50% of the cells could survive. […]

HCT-116 cells [2] = assay: Annexin-V/propidium iodide apoptosis assay; format: cell-based, human; details: 78 µM, 72 h
Procedure: The tested cells were subjected to 78 µM from compound 5m with an incubation time of 72 h.
The apoptotic effect of the compound 5m was tested as described in Supplementary data. Quantitative Real-Time Reverse-Transcriptase PCR (qRT-PCR) technique Using qRT-PCR, the effect of compound 5m on the expression of cleaved caspase-3 and caspase-8 was determined (Supplementary Materials). […]
(§10) S2.3. Annexin V - FITC apoptosis assay.
(§11) To detect the apoptosis induced by compound 5m , HCT-116 cells were seeded and incubated overnight and then treated with compound 5m at concentrations of 78 µM for 72 h. DMSO was chosen as the negative control. After that, the cells were collected and washed with PBS two successive times with centrifugation. Apoptosis detection kit (BD Biosciences, San Jose, CA) was used in this test. According to the manufacturer's protocol the cells were stained by Annexin V-FITC and propidium iodide (PI) in the binding b uffer for 20min at room temperature in the dark. Using a flow cytometer, Annexin V-FITC and PI binding were analyzed. Flowjo software was used to analyze the frequencies in all quadrants.
(§12) S2.4. Apoptotic effect of compound 5m treatment. […]
(§13) cells treated with compound 5m. […]

caspase-3 = assay: qRT-PCR caspase-3 level; format: cell-based, human; details: HCT-116 cells, 72 h, versus untreated cells
Procedure: (§14) Quantitative Real Time Reverse-Transcriptase PCR technique (determination of caspase-3
(§15) The total RNA was extracted from the control and treated cells by using RNeasy mini kit
(§16) (Qiagen, Germany) according the manufacturer's protocol. Then, the isolated RNAs were
(§17) quantitatively and qualitatively assessed using a NanoDrop®1000 spectrophotometer (Thermo
(§18) Scientific, Wilmington, DE, USA). The RNA aliquots were preserved at - 80 °C till the next
(§19) Reverse transcription and quantification of caspase-3 and caspase-8 mRNA
expressions using qRT-PCR:
(§20) iScriptTM One-Step RT-PCR Kit with SYBR® Green kit (BIORAD Laboratories, USA) was used
(§21) for reverse transcription of total RNA and quantification of the targeted mRNA expressions in
(§22) single reaction tube. In depth, the complementary DNA (cDNA) was performed efficiently from
(§23) the isolated RNA using iScriptTM MMLV (Moloney Murine Leukemia Virus) reverse
(§24) transcriptase. While, the relative expression levels of caspase -3 and caspase-8 mRNA were
(§25) determined using 2X SYBR® Green RT -PCR Reaction Mix, containing iTaq TM DNA polymerase
(§26) and SYBR® Green I dye, on the basis of the manufacturer’s guidelines. GAPDH was used as
(§27) housekeeping gene for data normalization. The reaction Mix consisted of 10 μL of 2X SYBR®
(§28) Green RT-PCR Reaction Mix, 1 μl of forward primer, 1 μl of reverse primer, 1 μl of iScript […]
(§29) were determined by using the 2- ΔΔct method.

[3] = system: colorectal carcinoma (HCT-116); assay: MTT anti-proliferative assay, HCT-116; format: cell-based; details: Homo sapiens, HCT-116, read-out: Cytotoxicity IC50 HCT-116
Procedure: as §1, §2, §3, §4, §5, §6, §7, §8, §9

caspase-8 = assay: qRT-PCR caspase-8 level; format: cell-based, human; details: HCT-116 cells, 72 h, versus untreated cells
Procedure: as §14, §15, §16, §17, §18, §19
expressions using qRT-PCR:
as §20, §21, §22, §23, §24, §25, §26, §27, §28, §29

HDAC4 = HDAC4 (Homo sapiens, UniProt P56524); assay: In vitro HDAC4 inhibitory assay; format: biochemical
HDAC4, sequence (P56524 whole entry): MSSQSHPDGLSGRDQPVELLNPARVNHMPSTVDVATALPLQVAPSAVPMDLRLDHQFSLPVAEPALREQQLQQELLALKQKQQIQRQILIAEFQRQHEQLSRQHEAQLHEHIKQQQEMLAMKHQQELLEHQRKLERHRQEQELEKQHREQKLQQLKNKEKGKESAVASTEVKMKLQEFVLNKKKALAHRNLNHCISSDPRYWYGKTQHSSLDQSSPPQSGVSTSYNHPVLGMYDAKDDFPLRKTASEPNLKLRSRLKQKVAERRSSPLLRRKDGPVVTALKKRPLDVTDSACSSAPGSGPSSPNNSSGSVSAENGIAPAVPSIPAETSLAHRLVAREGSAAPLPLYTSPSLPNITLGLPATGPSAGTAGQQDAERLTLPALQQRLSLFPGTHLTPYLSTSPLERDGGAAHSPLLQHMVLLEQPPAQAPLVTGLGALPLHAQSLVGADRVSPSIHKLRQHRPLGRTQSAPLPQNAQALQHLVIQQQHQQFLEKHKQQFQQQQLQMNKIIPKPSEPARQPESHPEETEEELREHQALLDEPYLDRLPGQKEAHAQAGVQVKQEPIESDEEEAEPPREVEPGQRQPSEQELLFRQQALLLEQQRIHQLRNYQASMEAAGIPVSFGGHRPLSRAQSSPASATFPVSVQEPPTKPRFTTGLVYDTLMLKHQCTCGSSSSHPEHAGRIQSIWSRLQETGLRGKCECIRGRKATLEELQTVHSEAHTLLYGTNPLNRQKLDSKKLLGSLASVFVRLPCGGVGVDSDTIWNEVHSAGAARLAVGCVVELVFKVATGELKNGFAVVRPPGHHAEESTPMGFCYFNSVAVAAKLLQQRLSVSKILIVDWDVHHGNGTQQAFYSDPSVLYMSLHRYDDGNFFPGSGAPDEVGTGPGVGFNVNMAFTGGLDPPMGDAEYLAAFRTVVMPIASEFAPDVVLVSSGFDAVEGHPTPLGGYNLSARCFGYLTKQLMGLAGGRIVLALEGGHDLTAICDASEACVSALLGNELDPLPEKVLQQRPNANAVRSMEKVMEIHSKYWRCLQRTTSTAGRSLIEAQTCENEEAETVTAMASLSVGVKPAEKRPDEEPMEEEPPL

HCT-116 cells [4] = assay: Flow cytometry cell cycle analysis; format: cell-based, human; details: 78 µM, 72 h, share of cells in phase
Procedure: The effect of the most promising compound, 5m, against the cell cycle was tested in HCT116 cells.
Cell cycle analysis was performed for compound 5m as described in Supplementary Materials. […]
defined as the concentration at which 50% of the cells could survive. The results were expressed […]
S2.2. In-vitro DNA-Flow cytometric (cell cycle) analysis. […]
h. Then, the tested cells were collected by trypsinization and washed in PBS. Ice - cold absolute ethanol was used for fixation of the collected cells. The cells were stained with Cycle TESTTM PLUS DNA Reagent Kit (BD Biosciences, San Jose, CA) accord ing to the manufacturer's instructions. Cell -cycle distribution was evaluated using a flow cytometer.
as §10, §11, §12, §13

HDAC1 = HDAC1 (Homo sapiens, UniProt Q13547); assay: In vitro HDAC1 inhibitory assay; format: biochemical
HDAC1, sequence (Q13547 whole entry): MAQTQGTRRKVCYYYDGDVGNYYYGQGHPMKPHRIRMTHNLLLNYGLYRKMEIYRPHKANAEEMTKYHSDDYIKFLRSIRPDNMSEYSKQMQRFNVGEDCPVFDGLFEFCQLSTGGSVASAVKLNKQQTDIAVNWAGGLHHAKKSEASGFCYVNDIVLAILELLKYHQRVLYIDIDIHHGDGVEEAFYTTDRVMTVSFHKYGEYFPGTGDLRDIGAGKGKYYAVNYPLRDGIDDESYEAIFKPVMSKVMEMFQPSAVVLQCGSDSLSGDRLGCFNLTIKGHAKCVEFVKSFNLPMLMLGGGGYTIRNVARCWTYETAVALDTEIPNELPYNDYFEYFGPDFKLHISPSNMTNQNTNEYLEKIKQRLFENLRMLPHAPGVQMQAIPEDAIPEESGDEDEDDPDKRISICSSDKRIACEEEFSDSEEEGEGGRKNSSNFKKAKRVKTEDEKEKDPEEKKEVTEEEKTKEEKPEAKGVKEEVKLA

[5] = system: HepG2 (human liver carcinoma cell line); assay: MTT anti-proliferative assay, HepG2; format: cell-based; details: HepG2, mean of at least three experiments, read-out: Cytotoxicity IC50 HepG-2
Procedure: as §1, §2, §3, §4, §5, §6, §7, §8, §9

in vitro = details: human

## CCCn1c(N)c(C(c2ccc(Cl)cc2)c2c(N)n(CCC)c(=O)[nH]c2=O)c(=O)[nH]c1=O [Compound 5m, 5,5′-((4-Chlorophenyl)methylene)bis(6-amino-1-propylpyrimidine-2,4(1H,3H)-dione)]
[1]
  IC50: 52 ± 3.5 µM
HCT-116 cells [2]; 37.59% versus 2.17% in control
  Apoptotic effect, times/fold compared to control cells: ~17
HCT-116 cells [2]; Annexin-V/PI
  DNA Content (%) Early (early apoptosis): 22.36%
  DNA Content (%) Late (late apoptosis): 13.14%
  DNA Content (%) Total (apoptotic effect): 37.59%
  Necrosis: 2.09
caspase-3
  RT-PCR (Fold Change) Caspase-3: 5 Fold Change and 4.891 Fold Change
[3]
  IC50: 78 ± 2 µM
caspase-8
  RT-PCR (Fold Change) Caspase-8: 2.5 Fold Change and 2.655 Fold Change
HDAC4
  IC50: 6.14 µM
HCT-116 cells [4]
  %G0–G1: 55.31%
  %G2/M: 9.81%
  %S: 34.88%
other
  melting point: 257 to 258 °C
HDAC1
  IC50: 0.108 µM
[5]
  IC50: 3.3 ± 0.56 µM
In vitro
  IC50: 65.7 ± 1.7 µM
